Measurements taken from US11214803B2, “Modulators of YAP1 expression” (Ionis Pharmaceuticals, Inc., priority 2019, dated 2022).
Strand notation (5' to 3'): a small letter for the sugar, then the base; units joined by * are phosphorothioate-linked, units joined directly phosphodiester-linked; [ ] holds rarer units or linkages, { } end groups; capitals alone tell only the bases. e = 2'-O-(2-methoxyethyl) (MOE); k = constrained ethyl (cEt); [5mC] = 5-methylcytosine; d = 2'-deoxy (DNA); m = 2'-O-methyl

Test system: Yap1 mRNA
Test: Antisense inhibition of human Yap1 in SNU-449 cells by modified oligonucleotides, single dose (Example 5, RTS36584)
Assay type: cell-based
In short: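 Free uptake, 2,000 nM, ~48 h, SNU-449 at 10,000 cells/well. Read-out: qRT-PCR (RTS36584), RIBOGREEN-normalised, expressed as % UTC. Asterisk = oligo hits amplicon region.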

[1] = Table 49, Yap1 mRNA level relative to untreated control, modified oligonucleotides targeting SEQ ID NO.: 1 and 2
[2] = Table 43 experiment, SNU-449 cells, 10,000 cells per well, free uptake, 2,000 nM, approximately 48 hours, RTS36584, Yap1 mRNA normalized to RIBOGREEN, relative to untreated control cells
[3] = Table 50, Yap1 mRNA remaining as percent of untreated control (UT), SNU-449 cells, single dose
[4] = Table 42 (separate experiment), SNU-449 cells, 10,000 cells per well, free uptake, 2,000 nM modified oligonucleotide, approximately 48 hours, RTS36584, normalized to RIBOGREEN, Yap1 mRNA relative to untreated control cells
[5] = Table 51, Yap1 mRNA remaining as percent of untreated control (UT), SNU-449 cells, single dose
[6] = Table 44 experiment, SNU-449 cells, 10,000 cells per well, free uptake, 2,000 nM, approximately 48 hours, RTS36584, Yap1 mRNA normalized to RIBOGREEN, relative to untreated control cells
[7] = Table 52, Yap1 mRNA, modified oligonucleotides targeting SEQ ID NO: 1 and 2
[8] = Table 48, Yap1 mRNA level relative to untreated control, modified oligonucleotides targeting SEQ ID NO.: 1 and 2
[9] = Table 39, SNU-449 cells, 10,000 cells per well, free uptake, 2,000 nM oligonucleotide, approx. 48 hours, RTS36584, normalized to RIBOGREEN, Yap1 mRNA relative to untreated control
[10] = Table 40 (separate experiment), SNU-449 cells, 10,000 cells per well, free uptake, 2,000 nM oligonucleotide, approx. 48 hours, RTS36584, normalized to RIBOGREEN, Yap1 mRNA relative to untreated control
[11] = Table 46, Yap1 mRNA as percent of untreated control, SNU-449 cells, single dose
[12] = Yap1 mRNA, percent of untreated control, modified oligonucleotides targeting SEQ ID NO: 1 and 2, Table 47

1198549 (antisense kA*kT*kG*dG*dA*dA*dA*dT*dT*dG*dT*d[5mC]*kT*k[5mC]*kA*eT) [Compound 1198549]
YAP1 (% UT) [1]: 84 % UT

1198461 (antisense kG*kG*dA*dA*dA*dT*dT*dG*dT*d[5mC]*dT*e[5mC]*kA*eT*kG*e[5mC]) [Compound 1198461]
YAP1 (% UTC) [2]: 24 % UTC

1198610 (antisense kT*kG*kT*dA*dT*dG*dT*d[5mC]*dA*dG*dA*dA*kG*kA*kG*eT) [Compound 1198610]
YAP1 (% UT) [3]: TksGksTksAdsTdsGdsTds^mCdsAdsGds4 % UT

1198232 (kT*kT*dT*dG*dG*dA*dA*dG*dA*dT*d[5mC]*eT*eG*eA*kA*kA) [Compound 1198232]
YAP1 (% UTC) [4]: 92 % UTC

1198712 (kA*kG*dA*d[5mC]*dT*dA*dA*dG*dT*dA*dA*dG*kG*eT*kT*eT; antisense) [Compound 1198712]
YAP1 (% UTC) [4]: 110 % UTC

1200787 (kA*kA*kA*dT*dT*mG*dT*d[5mC]*dT*d[5mC]*dA*dT*dG*k[5mC]*k[5mC]*kT) [Compound 1200787]
YAP1 (% UT) [5]: 38 % UT

1198474 (antisense kT*kA*dT*dA*dA*d[5mC]*dT*dG*dG*dG*d[5mC]*eA*kA*eA*kT*eT) [Compound 1198474]
YAP1 (% UTC) [6]: 68 % UTC

1200837 (kA*kT*kT*d[5mC]*dA*mG*dA*dT*dT*dT*dA*dG*dG*kA*kT*kG; antisense) [Compound 1200837]
YAP1 (% UT) [7]: 82 % UT

1197201 (antisense kT*k[5mC]*kT*dT*dA*dT*dA*dT*dG*dG*dT*dT*dT*kT*kG*kT) [Compound 1197201]
YAP1 (% UT) [8]: 46 % UT

1198421 (kT*dT*dA*dT*dA*dT*dG*dG*dT*dT*dT*kT*eG*kT*eG*kT; antisense) [Compound 1198421]
YAP1 (% UTC) [9]: 36 % UTC

1197279 (kT*kT*kA*dG*mA*d[5mC]*dT*dA*dA*dG*dT*dA*dA*kG*kG*kT) [Compound 1197279]
YAP1 (% UT) [5]: 54 % UT

1198759 (kA*eG*kG*dA*dT*dG*d[5mC]*dA*dT*dG*dG*dT*eT*eT*kT*kT; antisense) [Compound 1198759]
YAP1 (% UTC) [10]: 27 % UTC

1198838 (kT*kT*dT*dG*dG*dA*dA*dG*dA*dT*d[5mC]*kT*eG*kA*eA*kA; antisense) [Compound 1198838]
YAP1 (% UT) [11]: 66 % UT

1198883 (kA*kA*dG*dT*dA*dA*dG*dG*dT*dT*dT*k[5mC]*e[5mC]*k[5mC]*eA*kG; antisense) [Compound 1198883]
YAP1 (% UT) [11]: 47 % UT

1198337 (kT*k[5mC]*kT*dT*dA*dT*dA*dT*dG*dG*dT*dT*kT*eT*kG*eT; antisense) [Compound 1198337]
YAP1 (% UT) [1]: 26 % UT

1198972 (kA*k[5mC]*dT*dA*dA*dG*dT*dA*dA*dG*dG*kT*dT*kT*d[5mC]*k[5mC]; antisense) [Compound 1198972]
YAP1 (% UTC) (Table 45, Yap1 mRNA as percent of untreated control, SNU-449 cells, single dose): 46 % UTC

1095426 (antisense k[5mC]*kT*dG*dA*dG*dG*dT*dA*dT*dA*dA*k[5mC]*eT*kG*eG*kG) [Compound 1095426]
YAP1 (% UT) [11]: 54 % UT

1198457 (kA*kT*dT*dG*dT*d[5mC]*dT*d[5mC]*dA*dT*dG*e[5mC]*k[5mC]*eT*kT*eA) [Compound 1198457]
YAP1 (% UTC) [2]: 18 % UTC

1197260 (kT*kT*kA*dT*mA*dT*dG*dG*dT*dT*dT*dT*dG*kT*kG*kT) [Compound 1197260]
YAP1 (% UT) [5]: 65 % UT

1198391 (kG*dA*dG*dG*dT*dA*dT*dA*dA*d[5mC]*dT*kG*eG*kG*e[5mC]*kA) [Compound 1198391]
YAP1 (% UTC) [9]: 29 % UTC

1198468 (antisense kT*kT*dA*dG*dA*dG*dT*dA*dT*dG*dT*eG*kG*e[5mC]*kA*eA) [Compound 1198468]
YAP1 (% UTC) [2]: 22 % UTC

1198463 (antisense kA*kT*dG*dG*dA*dA*dA*dT*dT*dG*dT*e[5mC]*kT*e[5mC]*kA*eT) [Compound 1198463]
YAP1 (% UTC) [2]: 59 % UTC

1198198 (kT*kG*dT*d[5mC]*dT*d[5mC]*dA*dT*dG*d[5mC]*d[5mC]*eT*eT*eA*kT*kA; antisense) [Compound 1198198]
YAP1 (% UTC) [4]: 29 % UTC

1198313 (kA*kG*k[5mC]*dA*d[5mC]*dT*dT*dT*dT*dA*d[5mC]*dA*kT*eT*kA*eG; antisense) [Compound 1198313]
YAP1 (% UT) [8]: 31 % UT

1095398 (antisense k[5mC]*dT*dG*dA*dG*dG*dT*dA*dT*dA*dA*k[5mC]*eT*kG*eG*kG) [Compound 1095398]
YAP1 (% UTC) [9]: 38 % UTC

1197200 (antisense kT*kT*kA*dT*dA*dT*dG*dG*dT*dT*dT*dT*dG*kT*kG*kT) [Compound 1197200]
YAP1 (% UT) [8]: 49 % UT

1197262 (A_{ks}A_{ks}^{m}C_{ks}T_{ds}C_{ys}T_{ds}T_{ds}A_{ds}T_{ds}A_{ds}T_{ds}G_{ds}G_{ds}T_{ks}T_{ks}T_{k}; as printed in the source, key not given here) [Compound 1197262]
YAP1 (% UT) [5]: 89 % UT

1197224 (antisense kA*k[5mC]*kT*dA*dA*dG*dT*dA*dA*dG*dG*dT*dT*kT*k[5mC]*k[5mC]) [Compound 1197224]
YAP1 (% UT) [12]: 24 % UT

1198870 (kT*kA*dT*dG*dT*dA*dA*dT*dA*dT*dT*kG*e[5mC]*kA*eA*kT; antisense) [Compound 1198870]
YAP1 (% UT) [11]: 86 % UT

1198432 (kT*dA*dA*dT*dA*dT*dT*dG*d[5mC]*dA*dA*kT*e[5mC]*kT*eG*kT; antisense) [Compound 1198432]
YAP1 (% UTC) [9]: 70 % UTC

1198306 (kA*kA*k[5mC]*dA*d[5mC]*dT*dG*dA*dG*dG*dT*dA*kT*eA*kA*e[5mC]; antisense) [Compound 1198306]
YAP1 (% UT) [1]: 64 % UT

1198567 (antisense k[5mC]*kT*kT*dT*dT*dA*d[5mC]*dA*dT*dT*dA*dG*kG*kA*kA*e[5mC]) [Compound 1198567]
YAP1 (% UT) [1]: 54 % UT

1198428 (kG*dA*d[5mC]*dA*dA*d[5mC]*dT*d[5mC]*dT*dT*dA*kT*eA*kT*eG*kG; antisense) [Compound 1198428]
YAP1 (% UTC) [10]: 62 % UTC

1198352 (kT*kG*kT*dA*dT*dG*dT*d[5mC]*dA*dG*dA*dA*kG*eA*kG*eT; antisense) [Compound 1198352]
YAP1 (% UT) [1]: 7 % UT

1198667 (antisense kA*kG*dT*dG*d[5mC]*dT*dT*dT*dG*dG*dA*dA*kG*eA*kT*e[5mC]) [Compound 1198667]
YAP1 (% UTC) (Table 41, SNU-449 cells, 10,000 cells per well, free uptake, 2,000 nM modified oligonucleotide, approximately 48 hours, RTS36584, normalized to RIBOGREEN, Yap1 mRNA relative to untreated control cells): 40 % UTC

1198534 (kA*kG*dT*dA*dA*dG*dG*dT*dT*dT*d[5mC]*e[5mC]*k[5mC]*eA*kG*eA; antisense) [Compound 1198534]
YAP1 (% UTC) [6]: 30 % UTC

1198697 (antisense kA*kG*dT*dG*dT*dA*dT*dG*dT*d[5mC]*dA*dG*kA*eA*kG*eA) [Compound 1198697]
YAP1 (% UTC) [4]: 12 % UTC

1198302 (kT*kA*kT*dA*dA*d[5mC]*dT*dG*dG*dG*d[5mC]*dA*kA*eA*kT*eT; antisense) [Compound 1198302]
YAP1 (% UT) [1]: 67 % UT

1197276 (k[5mC]*kT*kA*dA*mG*dT*dA*dA*dG*dG*dT*dT*dT*k[5mC]*k[5mC]*k[5mC]; antisense) [Compound 1197276]
YAP1 (% UT) [5]: 44 % UT

1198878 (kT*kT*dT*dA*dA*dA*dG*dT*dG*dT*dA*kT*eG*kT*e[5mC]*kA; antisense) [Compound 1198878]
YAP1 (% UT) [12]: 42 % UT

1200869 (k[5mC]*kT*kA*dA*dG*mU*dA*dA*dG*dG*dT*dT*dT*k[5mC]*k[5mC]*k[5mC]; antisense) [Compound 1200869]
YAP1 (% UT) [7]: 25 % UT

1197196 (antisense k[5mC]*kA*kG*dA*dT*dT*dT*dA*dG*dG*dA*dT*dG*k[5mC]*kA*kT) [Compound 1197196]
YAP1 (% UT) [12]: 27 % UT

1200844 (kA*kA*k[5mC]*dT*d[5mC]*mU*dT*dA*dT*dA*dT*dG*dG*kT*kT*kT; antisense) [Compound 1200844]
YAP1 (% UT) [7]: 132 % UT

1198781 (antisense kG*eT*kA*dA*dT*dA*dT*dT*dG*d[5mC]*dA*dA*eT*e[5mC]*kT*kG) [Compound 1198781]
YAP1 (% UTC) [10]: 25 % UTC

1198502 (kA*kG*dA*dT*dT*dT*dA*dG*dG*dA*dT*eG*k[5mC]*eA*kT*eG; antisense) [Compound 1198502]
YAP1 (% UTC) [6]: 16 % UTC

1198260 (kT*kA*dA*dT*dA*dT*dT*dG*d[5mC]*dA*dA*eT*e[5mC]*eT*kG*kT; antisense) [Compound 1198260]
YAP1 (% UTC) [2]: 106 % UTC

1198564 (antisense kA*kA*k[5mC]*dA*d[5mC]*dT*dG*dA*dG*dG*dT*dA*kT*kA*kA*e[5mC]) [Compound 1198564]
YAP1 (% UT) [3]: 44 % UT

1198624 (kA*k[5mC]*kT*dA*dA*dG*dT*dA*dA*dG*dG*dT*kT*kT*k[5mC]*e[5mC]; antisense) [Compound 1198624]
YAP1 (% UT) [3]: 20 % UT
